According to PMC9743093 (Journal of Medicinal Chemistry, 2022):
Blank lines part the entries; values can stand above or below the molecule they belong to. Where a SMILES comes first, the peptide text is derived from it. The star is where a group is joined. Cbz = O=C(OCc1ccccc1)*

How the values were obtained:
[1] = test system: NF-κB p65 DNA binding activity; assay: NF-κB; assay type: cell-based, human; conditions: U87 nuclear extracts, 10 μM
GL261-luc. cells = assay: Survival of mice with intracranial GL261-luc. tumors; assay type: in vivo, C57BL/6 mice; conditions: 25 mg/kg once per day Monday-Friday up to 3 weeks, from day 14 post-injection
[2] = In vivo toxicity in C57BL/6 mice
IDO1 [3] = assay: IDO1 degradation by western blot in further cancer cell lines; assay type: cell-based, human; conditions: CD18, PANC-1, OVCAR5, SKOV3, PC3, GL261 IDO1-O/E; 24 h
IDO1 [4] = biological target: T1, IDO1 (Homo sapiens, UniProt P14902); assay: IDO1 degradation by western blot in IFNγ-stimulated GBM43 cells; conditions: 24 h, 0.01-30 μM, n = 3
T1 sequence (P14902 whole entry): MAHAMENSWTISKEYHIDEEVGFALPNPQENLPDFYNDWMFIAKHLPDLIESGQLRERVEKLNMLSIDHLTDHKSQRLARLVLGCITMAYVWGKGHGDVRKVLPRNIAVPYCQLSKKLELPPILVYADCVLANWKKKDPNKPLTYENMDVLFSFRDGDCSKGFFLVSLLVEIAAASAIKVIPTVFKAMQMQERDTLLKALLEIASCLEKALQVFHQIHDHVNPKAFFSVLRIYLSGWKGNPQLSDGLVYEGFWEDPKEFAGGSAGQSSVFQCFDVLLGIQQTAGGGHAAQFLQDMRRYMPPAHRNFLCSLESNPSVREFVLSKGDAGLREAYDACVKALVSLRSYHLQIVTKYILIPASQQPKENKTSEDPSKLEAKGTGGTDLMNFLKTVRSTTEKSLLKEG

IDO2 = assay: IDO1/IDO2 mRNA expression in GL261 cells; assay type: cell-based, mouse; conditions: 10 µM, 24 hours
[5] = test system: NF-κB p65 phosphorylation; assay: NF-κB p65 phosphorylation by western blot; assay type: cell-based, human; conditions: IFNγ-stimulated U87, GBM43 or MDA-MB-231 cells
TDO2 = TDO2 (Homo sapiens, UniProt P48775); assay: TDO2 western blot in U87 cells; assay type: cell-based; conditions: 24 h
TDO2, sequence (P48775 whole entry): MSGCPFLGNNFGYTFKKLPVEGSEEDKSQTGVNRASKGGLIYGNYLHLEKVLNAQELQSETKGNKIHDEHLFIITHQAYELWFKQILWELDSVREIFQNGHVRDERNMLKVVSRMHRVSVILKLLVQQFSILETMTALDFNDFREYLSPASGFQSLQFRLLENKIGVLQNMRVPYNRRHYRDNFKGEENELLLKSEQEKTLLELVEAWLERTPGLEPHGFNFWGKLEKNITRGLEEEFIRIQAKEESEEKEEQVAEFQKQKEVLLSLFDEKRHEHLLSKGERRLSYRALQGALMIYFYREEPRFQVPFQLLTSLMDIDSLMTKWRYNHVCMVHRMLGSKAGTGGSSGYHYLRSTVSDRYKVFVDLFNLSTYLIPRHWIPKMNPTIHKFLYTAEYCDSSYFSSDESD

IDO1 [6] = biological target: T1, IDO1; assay: BLI binding of compounds to immobilized IDO1
[7] = biological target: NU223612/IDO1/CRBN ternary complex (Homo sapiens, UniProt P14902+Q96SW2); assay: BLI of NU223612 pre-incubated with CRBN binding to IDO1
NU223612/IDO1/CRBN ternary complex, sequence (P14902 whole entry): as the sequence (P14902 whole entry) above
NU223612/IDO1/CRBN ternary complex, sequence (Q96SW2 whole entry): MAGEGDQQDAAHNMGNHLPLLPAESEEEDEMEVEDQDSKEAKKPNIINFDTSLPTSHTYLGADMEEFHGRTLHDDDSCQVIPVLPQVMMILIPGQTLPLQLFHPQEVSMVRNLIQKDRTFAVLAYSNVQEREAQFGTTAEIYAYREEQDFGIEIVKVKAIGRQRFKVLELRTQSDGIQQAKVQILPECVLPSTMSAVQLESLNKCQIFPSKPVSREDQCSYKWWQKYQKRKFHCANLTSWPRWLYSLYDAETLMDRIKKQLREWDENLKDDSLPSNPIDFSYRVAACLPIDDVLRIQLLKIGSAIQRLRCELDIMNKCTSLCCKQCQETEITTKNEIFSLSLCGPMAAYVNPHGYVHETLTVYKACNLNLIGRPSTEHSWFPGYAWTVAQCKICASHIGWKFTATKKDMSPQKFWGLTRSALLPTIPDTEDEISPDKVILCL

IDO1 [8] = biological target: IDO1 (Mus musculus, UniProt P28776); assay: Pharmacodynamics: IDO1 western blot of intracranial GL261 mIDO1 tumors; conditions: GL261 mIDO1 cDNA tumors, single 25 mg/kg ip.
IDO1 (Mus musculus, UniProt P28776), sequence (P28776 whole entry): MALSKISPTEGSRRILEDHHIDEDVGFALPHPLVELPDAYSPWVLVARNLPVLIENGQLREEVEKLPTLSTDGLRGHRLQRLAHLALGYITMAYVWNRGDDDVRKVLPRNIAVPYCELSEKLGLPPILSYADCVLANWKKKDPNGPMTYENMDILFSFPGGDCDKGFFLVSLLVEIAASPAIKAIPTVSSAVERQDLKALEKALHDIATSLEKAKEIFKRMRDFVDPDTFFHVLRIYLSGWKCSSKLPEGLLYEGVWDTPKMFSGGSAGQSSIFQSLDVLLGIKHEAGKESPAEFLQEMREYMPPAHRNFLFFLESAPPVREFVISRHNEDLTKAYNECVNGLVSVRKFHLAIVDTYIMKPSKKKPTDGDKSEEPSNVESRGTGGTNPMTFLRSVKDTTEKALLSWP

IDO1 enzyme activity = IDO1 enzyme activity (Homo sapiens, UniProt P14902); assay: Kynurenine assay; assay type: cell-based; conditions: IFNγ-stimulated GBM cells (U87, GBM43), 24 h
IDO1 enzyme activity, sequence (P14902 whole entry): as the sequence (P14902 whole entry) above

[9] = Pharmacokinetics in C57BL/6 mice; assay type: in vivo; conditions: mouse, single 25 mg/kg ip.
IDO1 [10] = biological target: T1, IDO1; assay: IDO1 degradation by western blot in patient PBMCs; assay type: cell-based; conditions: GBM patient-isolated PBMCs, 50 ng/mL IFNγ
IDO1 [11] = biological target: T1, IDO1; assay: IDO1 degradation by western blot in IFNγ-stimulated U87 cells; conditions: for effect on IDO1 protein levels: U87 and GBM43 GBM cells in vitro, western blot; for effect of co-treatment on NU223612-induced IDO1 degradation: combined with NU223612
IDO1 [12] = biological target: T1, IDO1; assay: IDO1 ubiquitination assay in U87 IDO1-FLAG cDNA-expressing cells; assay type: cell-based; conditions: immunoprecipitation, vs DMSO
CRBN = CRBN (Homo sapiens, UniProt Q96SW2); assay: BLI binding of compounds to immobilized CRBN; conditions: steady-state, 30 °C, PBS with 0.5% DMSO
CRBN, sequence (Q96SW2 whole entry): as the sequence (Q96SW2 whole entry) above

SMILES: C[C@@H](C(=O)Nc1ccc(OC2CCN(C(=O)CCOCCOCCNc3cccc4c3C(=O)N(C3CCC(=O)NC3=O)C4=O)CC2)cc1)[C@H]1CC[C@@H](c2ccnc3ccc(F)cc32)CC1 (stereo partly drawn) [NU223612, (2R)-N-(4-((1-(3-(2-(2-((2-(2,6-Dioxopiperidin-3-yl)-1,3-dioxoisoindolin-4-Yl)amino)ethoxy)ethoxy)propanoyl)piperidin-4-yl)oxy)phenyl)-2-((1S,4S)-4-(6-fluoroquinolin-4-yl)cyclohexyl)propenamide]
NF-κB p65 transcription factor DNA binding activity [1]: inhibits both IDO1-mediated tryptophan metabolism as well as IDO1 non-enzyme-mediated NF-κB p65 transcription factor DNA binding activity
longer-term survival post-tumor cell injection (GL261-luc. cells): up to 45 days
mortality ([2]; 100 mg/kg ip. 5 days/week for 3 weeks): increased mortality
precipitation of compound in the abdomen ([2]; 50 and 100 mg/kg doses ip.): precipitation of NU223612 observed around the intestines, liver, and pancreas
accumulation in serum and brain tissue ([2]; after 3 weeks ip., mice without brain tumors, mass spectrometry): dose-dependent accumulation of NU223612 in serum and brain tissue
body-weight changes ([2]; ip. 5 days/week for 3 weeks, 10, 25, 50 or 100 mg/kg): did not result in significant body-weight changes at any dose
IDO1 degradation in other cancer cell types (IDO1 [3]): dose-dependently degrades IDO1 in all of the human cancer cell types that were analyzed
DC50 (IDO1 [4]): 544 nM
IDO2 (and IDO1) mRNA expression levels (IDO2): no significant NU223612 effects on glioma cell IDO2 expression levels
p65 phosphorylation [5]: decreases p65 phosphorylation
effect on TDO2 protein levels (TDO2): did not decrease TDO2 protein levels
koff (IDO1 [6]; read-out: koff, NU223612/IDO1 binary complex): 0.042 s⁻¹
kon (IDO1 [6]; read-out: kon, NU223612/IDO1 binary complex): 68900 M⁻¹ s⁻¹
Kd [7]: 117 nM
cooperativity α = Kd binary/Kd ternary [7]: 2.5
koff ([7]; read-out: koff, ternary NU223612/CRBN/IDO1 complex): 0.0015 s⁻¹
kon ([7]; read-out: kon, ternary NU223612/CRBN/IDO1 complex): 12800 M⁻¹ s⁻¹
time IDO1 protein remains low in intracranial tumors (IDO1 [8]): up to 24 h
decrease of IDO1 protein in intracranial tumors (IDO1 [8]; within 2 h post-treatment): > 70%
IDO1 enzyme activity (Kyn levels) (IDO1 enzyme activity): dose-dependently inhibits IDO1 enzyme activity
Cmax, brain [9]: 2000 nM
IDO1 degradation in PBMCs (IDO1 [10]): degrades IDO1 protein
effect on IDO1 protein levels (IDO1 [11]): decreases IDO1 protein levels dose-dependently
degradation of catalytically inactive mutant IDO1 (IDO1 [11]; U87 cells transfected with enzyme-null IDO1 cDNA, 24 h): facilitated protein degradation of IDO1 enzyme-dead protein
IDO1 protein degradation at 100 nM (IDO1 [11]; U87 cells, 100 nM, 24 h): significant IDO1 protein degradation
duration of IDO1 degradation after a single continuous treatment (IDO1 [11]; U87 cells, 1 and 10 μM): up to 72 h
DC50 (IDO1 [11]; U87 cells, IFNγ-stimulated, 24 h, 0.01-30 μM, n = 3): 329 nM
effect of washout after 24 h on IDO1 degradation (IDO1 [11]; U87 cells, cultured without compound up to 48 h): did not affect the degradation of IDO1 protein
nuclear and cytoplasmic IDO1 degradation (IDO1 [11]; U87 cells, subcellular fractions): equally degraded IDO1 protein levels in both the cytoplasmic and nuclear intracellular compartments
duration of IDO1 degradation effect (IDO1 [11]; human GBM cells (U87, GBM43)): at least 96 h
time at which IDO1 degradation began after treatment initiation (IDO1 [11]; human GBM cells (U87, GBM43)): 16 h
ubiquitination of IDO1 (IDO1 [12]): causes monoubiquitination of IDO1

binding affinity (Kd) to CRBN (CRBN): no measurable binding
SMILES: C[C@@H](C(=O)Nc1ccc(OC2CCN(C(=O)CCOCCOCCNc3cccc4c3C(=O)N(C3CCC(=O)N(C)C3=O)C4=O)CC2)cc1)[C@H]1CC[C@@H](c2ccnc3ccc(F)cc32)CC1 (stereo partly drawn) [NU226211, (2R)-2-((1S,4S)-4-(6-Fluoroquinolin-4-yl)cyclohexyl)-N-(4-((1-(3-(2-(2-((2-(1-methyl-2,6-dioxopiperidin-3-yl)-1,3-dioxoisoindolin-4-yl)amino)ethoxy)ethoxy)propanoyl)piperidin-4-yl)oxy)phenyl)propenamide]
p65 phosphorylation [5]: neither NU226211 nor NU223618 inhibits NF-κB phosphorylation
effect on IDO1 protein levels (IDO1 [11]): neither NU226211 nor NU223618 decreases IDO1 protein levels
ubiquitination of IDO1 (IDO1 [12]): neither NU226211 nor NU223618 mediated the ubiquitination

SMILES: NS(=O)(=O)OC[C@@H]1C[C@@H](n2ccc3c(N[C@H]4CCc5ccccc54)ncnc32)C[C@@H]1O [MLN4924, reference compound]
effect of co-treatment on NU223612-induced IDO1 degradation (IDO1 [11]; U87 cells): ablation of IDO1-PROTAC-mediated IDO1 protein degradation

SMILES: CC(C)C[C@@H](C=O)NC(=O)[C@H](CC(C)C)NC(=O)[C@H](CC(C)C)NC(=O)OCc1ccccc1 [MG132, reference compound] (Cbz-Leu-Leu-Leu-aldehyde)
effect of co-treatment on NU223612-induced IDO1 degradation (IDO1 [11]; U87 cells): ablation of IDO1-PROTAC-mediated IDO1 protein degradation

SMILES: C[C@@H](C(=O)Nc1ccc(Cl)cc1)[C@H]1CC[C@@H](c2ccnc3ccc(F)cc32)CC1 [NU223618, reference compound]
p65 phosphorylation [5]: neither NU226211 nor NU223618 inhibits NF-κB phosphorylation

SMILES: Nc1cccc2c1C(=O)N(C1CCC(=O)NC1=O)C2=O (stereo not shown) [pomalidomide, reference compound]
effect of co-treatment on NU223612-induced IDO1 degradation (IDO1 [11]; U87 cells): ablation of IDO1-PROTAC-mediated IDO1 protein degradation
